Experiments:
Test in all cases: relative viability (nuclei count vs DMSO), 5 days (fraction); higher = more cells survive
[1] = system: NCI-H1650
Method in brief: (§1)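 Lung cancer cell lines were pin-tool dosed in 1536-well plates on the day after seeding, with either a lone drug or a fixed anchor-drug dose plus five library-drug doses (not always all listed) in √10 steps. Nuclei were counted on 4× images after 5 days. Relative viability is the ratio of treated-well to vehicle-well nuclei counts, with each value a median of duplicate plates.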

[2] = system: NCI-H2009
Method in brief: as §1

[3] = system: NCI-H1975
Method in brief: as §1

[4] = system: PC-3 [JPC-3]
Method in brief: as §1

[5] = system: EPLC-272H
Method in brief: as §1

[6] = system: NCI-H1651
Method in brief: as §1

[7] = system: NCI-H2170
Method in brief: as §1

[8] = system: NCI-H441
Method in brief: as §1

[9] = system: NCI-H2087
Method in brief: as §1

[10] = system: LC-2-ad
Method in brief: as §1

[11] = system: UMC-11
Method in brief: as §1

[12] = system: NCI-H2228
Method in brief: as §1

[13] = system: H3255
Method in brief: as §1

[14] = system: HARA
Method in brief: as §1

[15] = system: LOU-NH91
Method in brief: as §1

[16] = system: SW 1573
Method in brief: as §1

[17] = system: NCI-H23
Method in brief: as §1

[18] = system: NCI-H2085
Method in brief: as §1

[19] = system: NCI-H727
Method in brief: as §1

[20] = system: NCI-H2023
Method in brief: as §1

[21] = system: NCI-H838
Method in brief: as §1

[22] = system: SW 900
Method in brief: as §1

[23] = system: NCI-H650
Method in brief: as §1

With `CCNC(=O)c1noc(-c2cc(C(C)C)c(O)cc2O)c1-c1ccc(CN2CCOCC2)cc1` [Luminespib] + O=C(c1cc(Cc2n[nH]c(=O)c3ccccc23)ccc1F)N1CCN(C(=O)C2CC2)CC1 [Olaparib] (partner 8 µM) the relative viability ([1]; first compound 0.002 µM) was 0.852, the relative viability ([1]; first compound 0.006325 µM) was 0.786 and the relative viability ([1]; first compound 0.02 µM) was 0.686. For the same compound, the relative viability ([1]; first compound 0.06325 µM) was 0.142, the relative viability ([1]; first compound 0.2 µM) was 0.137 and the relative viability ([2]; first compound 0.002 µM) was 0.763. It also gave a relative viability ([2]; first compound 0.006325 µM) of 0.67, a relative viability ([2]; first compound 0.02 µM) of 0.701 and a relative viability ([2]; first compound 0.06325 µM) of 0.409. It also gave a relative viability ([2]; first compound 0.2 µM) of 0.0486, a relative viability ([3]; first compound 0.002 µM) of 0.875 and a relative viability ([3]; first compound 0.006325 µM) of 0.802. For the same compound, the relative viability ([3]; first compound 0.02 µM) was 0.919, the relative viability ([3]; first compound 0.06325 µM) was 0.128 and the relative viability ([3]; first compound 0.2 µM) was 0.156. It also gave a relative viability ([4]; first compound 0.002 µM) of 1.09, a relative viability ([4]; first compound 0.006325 µM) of 1.04 and a relative viability ([4]; first compound 0.02 µM) of 0.863. It also gave a relative viability ([4]; first compound 0.06325 µM) of 0.392, a relative viability ([4]; first compound 0.2 µM) of 0.398 and a relative viability ([5]; first compound 0.002 µM) of 0.812. It also gave a relative viability ([5]; first compound 0.006325 µM) of 0.702, a relative viability ([5]; first compound 0.02 µM) of 0.709 and a relative viability ([5]; first compound 0.06325 µM) of 0.0637. For the same compound, the relative viability ([5]; first compound 0.2 µM) was 0.082, the relative viability ([6]; first compound 0.002 µM) was 0.195 and the relative viability ([6]; first compound 0.006325 µM) was 0.177. For the same compound, the relative viability ([6]; first compound 0.02 µM) was 0.251, the relative viability ([6]; first compound 0.06325 µM) was 0.181 and the relative viability ([6]; first compound 0.2 µM) was 0.165. The relative viability ([7]; first compound 0.002 µM) was 0.659, the relative viability ([7]; first compound 0.006325 µM) was 0.539 and the relative viability ([7]; first compound 0.06325 µM) was 0.468. For the same compound, the relative viability ([7]; first compound 0.2 µM) was 0.16, the relative viability ([8]; first compound 0.002 µM) was 0.524 and the relative viability ([8]; first compound 0.006325 µM) was 0.569. It also gave a relative viability ([8]; first compound 0.02 µM) of 0.714, a relative viability ([8]; first compound 0.06325 µM) of 0.119 and a relative viability ([8]; first compound 0.2 µM) of 0.117. It also gave a relative viability ([9]; first compound 0.002 µM) of 0.639, a relative viability ([9]; first compound 0.006325 µM) of 0.518 and a relative viability ([9]; first compound 0.02 µM) of 0.559. The relative viability ([9]; first compound 0.06325 µM) was 0.116, the relative viability ([9]; first compound 0.2 µM) was 0.113 and the relative viability ([10]; first compound 0.002 µM) was 0.704. The relative viability ([10]; first compound 0.006325 µM) was 0.713, the relative viability ([10]; first compound 0.02 µM) was 0.866 and the relative viability ([10]; first compound 0.06325 µM) was 0.48. For the same compound, the relative viability ([10]; first compound 0.2 µM) was 0.297, the relative viability ([11]; first compound 0.002 µM) was 0.391 and the relative viability ([11]; first compound 0.006325 µM) was 0.403. For the same compound, the relative viability ([11]; first compound 0.02 µM) was 0.401, the relative viability ([11]; first compound 0.06325 µM) was 0.205 and the relative viability ([11]; first compound 0.2 µM) was 0.149. The relative viability ([12]; first compound 0.002 µM) was 0.595, the relative viability ([12]; first compound 0.006325 µM) was 0.638 and the relative viability ([12]; first compound 0.02 µM) was 0.326. The relative viability ([12]; first compound 0.06325 µM) was 0.128, the relative viability ([12]; first compound 0.2 µM) was 0.142 and the relative viability ([13]; first compound 0.002 µM) was 0.59. It also gave a relative viability ([13]; first compound 0.006325 µM) of 0.521, a relative viability ([13]; first compound 0.02 µM) of 0.563 and a relative viability ([13]; first compound 0.06325 µM) of 0.337. It also gave a relative viability ([13]; first compound 0.2 µM) of 0.253, a relative viability ([14]; first compound 0.002 µM) of 0.425 and a relative viability ([14]; first compound 0.006325 µM) of 0.814. It also gave a relative viability ([14]; first compound 0.02 µM) of 0.997, a relative viability ([14]; first compound 0.06325 µM) of 0.146 and a relative viability ([14]; first compound 0.2 µM) of 0.102. For the same compound, the relative viability ([15]; first compound 0.002 µM) was 0.967, the relative viability ([15]; first compound 0.006325 µM) was 0.89 and the relative viability ([15]; first compound 0.02 µM) was 0.445. It also gave a relative viability ([15]; first compound 0.06325 µM) of 0.351, a relative viability ([15]; first compound 0.2 µM) of 0.348 and a relative viability ([16]; first compound 0.002 µM) of 0.445. For the same compound, the relative viability ([16]; first compound 0.006325 µM) was 0.4, the relative viability ([16]; first compound 0.02 µM) was 0.165 and the relative viability ([16]; first compound 0.06325 µM) was 0.101. The relative viability ([16]; first compound 0.2 µM) was 0.0793, the relative viability ([17]; first compound 0.002 µM) was 0.36 and the relative viability ([17]; first compound 0.006325 µM) was 0.333. The relative viability ([17]; first compound 0.02 µM) was 0.346, the relative viability ([17]; first compound 0.06325 µM) was 0.102 and the relative viability ([17]; first compound 0.2 µM) was 0.121. For the same compound, the relative viability ([18]; first compound 0.002 µM) was 0.78, the relative viability ([18]; first compound 0.006325 µM) was 0.742 and the relative viability ([18]; first compound 0.02 µM) was 0.766. The relative viability ([18]; first compound 0.06325 µM) was 0.425, the relative viability ([18]; first compound 0.2 µM) was 0.337 and the relative viability ([19]; first compound 0.002 µM) was 0.674. The relative viability ([19]; first compound 0.006325 µM) was 0.767, the relative viability ([19]; first compound 0.02 µM) was 0.695 and the relative viability ([19]; first compound 0.06325 µM) was 0.403. For the same compound, the relative viability ([19]; first compound 0.2 µM) was 0.271, the relative viability ([20]; first compound 0.002 µM) was 0.459 and the relative viability ([20]; first compound 0.006325 µM) was 0.418. For the same compound, the relative viability ([20]; first compound 0.02 µM) was 0.219, the relative viability ([20]; first compound 0.06325 µM) was 0.056 and the relative viability ([20]; first compound 0.2 µM) was 0.0536. For the same compound, the relative viability ([21]; first compound 0.002 µM) was 0.772, the relative viability ([21]; first compound 0.006325 µM) was 0.782 and the relative viability ([21]; first compound 0.02 µM) was 0.723. For the same compound, the relative viability ([21]; first compound 0.06325 µM) was 0.122, the relative viability ([21]; first compound 0.2 µM) was 0.129 and the relative viability ([22]; first compound 0.002 µM) was 0.688. It also gave a relative viability ([22]; first compound 0.006325 µM) of 0.81, a relative viability ([22]; first compound 0.02 µM) of 0.818 and a relative viability ([22]; first compound 0.06325 µM) of 0.163. For the same compound, the relative viability ([22]; first compound 0.2 µM) was 0.152, the relative viability ([23]; first compound 0.002 µM) was 0.452 and the relative viability ([23]; first compound 0.006325 µM) was 0.338. For the same compound, the relative viability ([23]; first compound 0.02 µM) was 0.34, the relative viability ([23]; first compound 0.06325 µM) was 0.061 and the relative viability ([23]; first compound 0.2 µM) was 0.0723.

Reference: the supplement of paper PMC10307832
